Source: PubChem BioAssay (NCI)
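Five compound concentrations were applied to cells in 96-well plates for 48 hours; endpoints were derived by simple linear interpolation of the resulting dose-response curve. The concentration for 50% growth inhibition is given as GI50. TGI: total growth inhibition.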

Experiments:
Experiment in all cases: NCI anticancer screen, dose series, 48 h
SN12C renal = system: SN12C renal
SW-620 colon = system: SW-620 colon
HCC-2998 colon = system: HCC-2998 colon
SF-268 CNS = system: SF-268 CNS
DLD-1 colon = system: DLD-1 colon
HCT-116 colon = system: HCT-116 colon
NCI-H522 lung = system: NCI-H522 lung
SNB-19 CNS = system: SNB-19 CNS
LXFL 529 NSCLC = system: LXFL 529 NSCLC
BT-549 breast = system: BT-549 breast

SMILES | TGI (SN12C renal) | TGI (SW-620 colon) | TGI (HCC-2998 colon) | TGI (SF-268 CNS) | TGI (DLD-1 colon) | TGI (HCT-116 colon) | TGI (NCI-H522 lung) | TGI (SNB-19 CNS) | TGI (LXFL 529 NSCLC) | GI50 (SN12C renal) | GI50 (SW-620 colon) | GI50 (HCC-2998 colon) | GI50 (BT-549 breast) | TGI (BT-549 breast) | GI50 (SF-268 CNS) | GI50 (HCT-116 colon) | GI50 (NCI-H522 lung) | GI50 (SNB-19 CNS)
Cc1cccc(CC(C)(C)C)c1NC(=O)C(=O)C(C(=O)c1ccc2ccccc2c1)C1OC(=O)c2ccccc21 (stereo not drawn) | 36.9 µM | 38.7 µM | 25.2 µM | 30.6 µM | 35.1 µM | > 100 µM | 26.7 µM | 46.9 µM | – | – | – | – | – | – | – | – | – | –
Cc1cccc(N2C(=O)/C(=C/c3ccc(N(CCC#N)CCC#N)cc3C)N=C2c2cc([N+](=O)[O-])ccc2Cl)c1 | > 100 µM | > 100 µM | > 100 µM | > 100 µM | > 100 µM | > 100 µM | > 100 µM | > 100 µM | > 100 µM | – | – | – | – | – | – | – | – | –
CCOC(=N)CC(=O)NC(C)c1ccccc1 (stereo not drawn) | > 100 µM | > 100 µM | > 100 µM | > 100 µM | > 100 µM | > 100 µM | > 100 µM | > 100 µM | > 100 µM | – | – | – | – | – | – | – | – | –
O=C1c2cccc3cccc(c23)C(=O)N1CCCN1CCN(CCCN2C(=O)c3cccc4cccc(c34)C2=O)CC1 | > 100 µM | > 100 µM | > 100 µM | – | > 100 µM | > 100 µM | – | > 100 µM | > 100 µM | – | – | – | – | – | – | – | – | –
O=C1CC2Sc3ccccc3N=C2N1c1ccc(Cl)cc1Cl (stereo not drawn) | > 100 µM | > 100 µM | > 100 µM | > 100 µM | > 100 µM | > 100 µM | – | > 100 µM | > 100 µM | – | – | – | – | – | – | – | – | –
O=C1/C(=C/c2ccccc2)CN(C(=O)OCC(Cl)(Cl)Cl)C/C1=C\c1ccccc1 | 3.56 µM | 2.3 µM | – | 15.3 µM | 3.77 µM | 2.6 µM | – | 11.9 µM | 3.94 µM | – | – | – | – | – | – | – | – | –
O=C1c2ccccc2C(=O)c2c1ccc1c3ccccc3n(Cc3ccccc3)c21 | > 100 µM | > 100 µM | – | > 100 µM | > 100 µM | > 100 µM | > 100 µM | – | > 100 µM | – | – | – | – | – | – | – | – | –
O=C(OCc1nc2ccc(Br)cc2c(=O)n1-c1ccccc1)c1ccccc1O | > 100 µM | > 100 µM | > 100 µM | > 100 µM | > 100 µM | > 100 µM | > 100 µM | – | > 100 µM | – | – | – | – | – | – | – | – | –
CN(C)c1ccc(Sc2ccc3nc(N)nc(N)c3c2)cc1 | 14.2 µM | 2.1 µM | 4.84 µM | 14.3 µM | – | 1.64 µM | 11.7 µM | 17.7 µM | – | 0.761 µM | 0.318 µM | 0.848 µM | 3.28 µM | 19.5 µM | 0.604 µM | 0.305 µM | 0.934 µM | 1.2 µM
N#CC1(C#N)C2C=CC(C3CCC=C32)C1(C#N)C#N (stereo not drawn) | > 10 µM | 3.32 µM | > 10 µM | > 10 µM | – | > 10 µM | > 7.9 µM | > 10 µM | – | – | – | – | – | > 10 µM | – | – | – | –
Cn1cc(-c2nn3cc(-c4cccs4)nc3s2)c2cc(F)ccc21 | > 100 µM | > 100 µM | 33.9 µM | > 100 µM | – | 26.4 µM | 24.5 µM | > 100 µM | – | 4.71 µM | 0.478 µM | 5.64 µM | 5.54 µM | 77.4 µM | 6.58 µM | 2.04 µM | 1.62 µM | 3.44 µM
Nc1ncnc2c1ncn2Cc1ccc(C23CC4CC(CC(C4)C2)C3)c(O)c1 | > 100 µM | > 100 µM | 82.1 µM | > 100 µM | – | > 100 µM | > 100 µM | > 100 µM | – | 36.9 µM | 48.7 µM | 12.4 µM | 23.5 µM | > 100 µM | 21.1 µM | 8.91 µM | 25.6 µM | 30.3 µM
COc1cc2c(cc1OC)[C@H]1C(=O)c3cc4c(cc3[C@H]1N(C)C2=O)OCO4 | > 100 µM | > 100 µM | > 100 µM | > 100 µM | – | > 100 µM | > 75 µM | > 100 µM | – | – | – | – | – | > 100 µM | – | – | – | –
COc1cc2c(c(OC)c1OC)-c1ccc(SC)c(=O)cc1[C@@H](NC(=O)c1ccc(C#N)cc1)CC2 | > 77.8 µM | > 100 µM | < 0.01 µM | > 48.7 µM | > 100 µM | 12.6 µM | < 0.01 µM | – | 18.3 µM | – | – | – | – | – | – | – | – | –
O=C(Nc1ccccc1)Nc1ccccc1CNc1nc(Nc2ccc(OCCN3CCCC3)cc2)ncc1Cl | 9.12 µM | 12.7 µM | 11.3 µM | 16.6 µM | – | 7.12 µM | 18.8 µM | 12.5 µM | – | 2.41 µM | 4.67 µM | 5.23 µM | 5.05 µM | 11.4 µM | 6.2 µM | 1.75 µM | 5.3 µM | 5.53 µM
CC(=O)C1=C(O)/C(=C\c2ccco2)OC1=O | > 10 µM | > 10 µM | > 10 µM | > 10 µM | – | > 10 µM | > 10 µM | > 10 µM | – | – | – | – | – | > 10 µM | – | – | – | –
CC(C)n1nc(C#Cc2cccc(NC(=O)c3cccc(C(F)(F)F)c3)c2)c2c(N)ncnc21 | 8.17 µM | > 100 µM | 75.7 µM | 10.4 µM | – | 3.89 µM | 9.11 µM | > 100 µM | – | 1.28 µM | 2.2 µM | 2.36 µM | 2.46 µM | 47.7 µM | 2.15 µM | 0.308 µM | 1.83 µM | 4.21 µM
O=[N+]([O-])O.[NH-]C1CCCCC1[NH-].[NH-]C1CCCCC1[NH-].[NH-]C1CCCCC1[NH-].[OH-].[OH-].[OH-].[Pt+4].[Pt+4].[Pt+4] (stereo not drawn) | 26.7 µM | > 100 µM | 19 µM | > 50.2 µM | – | – | 2.98 µM | > 58.9 µM | – | 0.126 µM | – | 2.09 µM | 3.02 µM | > 62.5 µM | 0.791 µM | 0.0709 µM | 0.212 µM | 1.06 µM
O=c1[nH]c2cc(O)ccc2n2cc3c(F)cccc3c12 | > 100 µM | > 100 µM | > 100 µM | > 100 µM | – | > 100 µM | > 100 µM | > 100 µM | – | 2.57 µM | 0.477 µM | > 24.3 µM | > 100 µM | > 100 µM | 2.57 µM | 0.881 µM | 0.785 µM | 3.33 µM
CC(C)(C)NCCC(O)c1cc(C(F)(F)F)nc2c(C(F)(F)F)cccc12 (stereo not drawn) | 15.5 µM | > 52.6 µM | 8.73 µM | 24.2 µM | – | 17.1 µM | 25.1 µM | 27.3 µM | – | – | – | – | – | 23.2 µM | – | – | – | –
